Measured values as given in ChEMBL document CHEMBL1201862, “PubChem BioAssay data set” (2004).
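Cells were grown in 96-well plates and exposed to each compound for 48 hours at five concentrations; endpoints were interpolated linearly between bracketing concentrations, or set to the highest concentration if not reached. Here, GI50 denotes the concentration required for 50% inhibition of growth.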 Active and inactive are the calls of the source. No stated cut-off is given here; in the data, active = GI50 up to about 1.1 µM and inactive = higher.

Columns and labels:
Test in all cases: growth of human tumour cells (NCI), 48 h
UACC-62 = system: UACC-62
MDA-N = system: MDA-N
IGROV-1 = system: IGROV-1
SK-MEL-2 = system: SK-MEL-2
HCT-116 = system: HCT-116
NCI-H23 = system: NCI-H23
OVCAR-5 = system: OVCAR-5
HL-60 = system: HL-60
NCI-H226 = system: NCI-H226
MOLT-4 = system: MOLT-4
UO-31 = system: UO-31
RPMI-8226 = system: RPMI-8226
HT-29 = system: HT-29
ACHN = system: ACHN
PC-3 = system: PC-3
SNB-75 = system: SNB-75
LOX IMVI = system: LOX IMVI
KM12 = system: KM12
OVCAR-8 = system: OVCAR-8
MDA-MB-231 = system: MDA-MB-231

SMILES	GI50 (UACC-62)	GI50 (MDA-N)	GI50 (IGROV-1)	GI50 (SK-MEL-2)	GI50 (HCT-116)	GI50 (NCI-H23)	GI50 (OVCAR-5)	GI50 (HL-60)	GI50 (NCI-H226)	GI50 (MOLT-4)	GI50 (UO-31)	GI50 (RPMI-8226)	GI50 (HT-29)	GI50 (ACHN)	GI50 (PC-3)	GI50 (SNB-75)	GI50 (LOX IMVI)	GI50 (KM12)	GI50 (OVCAR-8)	GI50 (MDA-MB-231)
c1ccc(/N=C2\SC(=NNc3ccccc3)S\C2=N/c2ccccc2)cc1	4.13 µM (inactive)	77.6 µM (inactive)	54.2 µM (inactive)	8.18 µM (inactive)	50.4 µM (inactive)	> 100 µM (inactive)	98.2 µM (inactive)	> 100 µM (inactive)	48.1 µM (inactive)	> 100 µM (inactive)	> 100 µM (inactive)	> 100 µM (inactive)	45.4 µM (inactive)	> 100 µM (inactive)	19.5 µM (inactive)	85.7 µM (inactive)	13 µM (inactive)	6.12 µM (inactive)	> 100 µM (inactive)	> 100 µM (inactive)
O=C1C=C(c2c(O)ccc3ccccc23)c2ccccc2C1=O	2.35 µM (inactive)	2 µM (inactive)	3.3 µM (inactive)	4.68 µM (inactive)	2.15 µM (inactive)	2.15 µM (inactive)	10.7 µM (inactive)	2.65 µM (inactive)	9.77 µM (inactive)	1.72 µM (inactive)	2.24 µM (inactive)	2.35 µM (inactive)	6.97 µM (inactive)	3.44 µM (inactive)	2.12 µM (inactive)	3.87 µM (inactive)	1.77 µM (inactive)	3.77 µM (inactive)	1.89 µM (inactive)	3.85 µM (inactive)
Oc1ccc2c(c1)OCC(O)(c1ccccc1O)C2 (stereo not given)	> 100 µM (inactive)	> 100 µM (inactive)	> 100 µM (inactive)	> 100 µM (inactive)	> 100 µM (inactive)	> 100 µM (inactive)	> 100 µM (inactive)	> 100 µM (inactive)	> 100 µM (inactive)	> 100 µM (inactive)	> 100 µM (inactive)	> 100 µM (inactive)	> 100 µM (inactive)	> 100 µM (inactive)	> 100 µM (inactive)	61.4 µM (inactive)	> 100 µM (inactive)	> 100 µM (inactive)	> 100 µM (inactive)	> 100 µM (inactive)
NC(=O)NC(=O)Nc1ccc(Br)cc1	2.92 µM (inactive)	50.9 µM (inactive)	16.7 µM (inactive)	13.2 µM (inactive)	17.3 µM (inactive)	> 14.5 µM (inactive)	> 21.1 µM (inactive)	4.34 µM (inactive)	21.5 µM (inactive)	3.78 µM (inactive)	22.8 µM (inactive)	10.3 µM (inactive)	3.46 µM (inactive)	> 9.62 µM (inactive)	23.9 µM (inactive)	3.19 µM (inactive)	8.45 µM (inactive)	21.8 µM (inactive)	> 13.7 µM (inactive)	> 16.6 µM (inactive)
COC(=O)/C(=N\Nc1nnc(C)n1N)C(C#N)c1ccccc1 (stereo not given)	> 100 µM (inactive)	23.4 µM (inactive)	> 54.8 µM (inactive)	> 100 µM (inactive)	> 73.1 µM (inactive)	24.1 µM (inactive)	> 100 µM (inactive)	> 100 µM (inactive)	> 100 µM (inactive)	> 100 µM (inactive)	> 91.4 µM (inactive)	99.5 µM (inactive)	> 63.1 µM (inactive)	27.8 µM (inactive)	> 100 µM (inactive)	> 64.9 µM (inactive)	> 64.9 µM (inactive)	> 100 µM (inactive)	> 73.3 µM (inactive)	> 100 µM (inactive)
CC(=O)c1ccc2c(c1)CC1(C2)Cc2ccccc2C1=O (stereo not given)	55.6 µM (inactive)	45.1 µM (inactive)	79.1 µM (inactive)	71 µM (inactive)	44.1 µM (inactive)	78.9 µM (inactive)	> 100 µM (inactive)	25.1 µM (inactive)	85.3 µM (inactive)	29.6 µM (inactive)	42.4 µM (inactive)	33.6 µM (inactive)	14.6 µM (inactive)	54 µM (inactive)	35.2 µM (inactive)	34.5 µM (inactive)	36.1 µM (inactive)	43.3 µM (inactive)	37.9 µM (inactive)	57.3 µM (inactive)
CCCCCCCCCCOC1C(C(O)CNCCCN(C)C)OC2OC3(CCCCC3)OC21 (stereo not given)	2.79 µM (inactive)	1.96 µM (inactive)	1.93 µM (inactive)	2.32 µM (inactive)	1.99 µM (inactive)	1.48 µM (inactive)	1.72 µM (inactive)	1.69 µM (inactive)	18.5 µM (inactive)	1.77 µM (inactive)	2.37 µM (inactive)	1.94 µM (inactive)	1.62 µM (inactive)	2.81 µM (inactive)	2.26 µM (inactive)	0.0491 µM (active)	1.09 µM (active)	1.51 µM (inactive)	2.39 µM (inactive)	1.8 µM (inactive)
S=c1ssc2c3ssc(=S)c3n(Cc3ccccc3)c12	40.3 µM (inactive)	> 100 µM (inactive)	> 100 µM (inactive)	> 100 µM (inactive)	> 100 µM (inactive)	> 100 µM (inactive)	> 100 µM (inactive)	> 100 µM (inactive)	> 100 µM (inactive)	4.9 µM (inactive)	20.3 µM (inactive)	> 100 µM (inactive)	> 100 µM (inactive)	> 100 µM (inactive)	74.6 µM (inactive)	98.4 µM (inactive)	43.2 µM (inactive)	> 100 µM (inactive)	74.8 µM (inactive)	> 100 µM (inactive)
CNC(=O)N(C1=NCC(C)S1)c1ccc(C)c(C)c1 (stereo not given)	3.56 µM (inactive)	0.443 µM (active)	8.89 µM (inactive)	1.87 µM (inactive)	3.5 µM (inactive)	7.08 µM (inactive)	15.6 µM (inactive)	1.17 µM (inactive)	4.6 µM (inactive)	4.81 µM (inactive)	8.26 µM (inactive)	2.81 µM (inactive)	2.52 µM (inactive)	12 µM (inactive)	3.98 µM (inactive)	1.31 µM (inactive)	5.09 µM (inactive)	3.15 µM (inactive)	4.74 µM (inactive)	12.1 µM (inactive)
Nc1nc(Cl)cc(NCCC2(CO)CCC2)n1	> 100 µM (inactive)	> 100 µM (inactive)	> 100 µM (inactive)	> 100 µM (inactive)	> 100 µM (inactive)	> 100 µM (inactive)	> 100 µM (inactive)	> 100 µM (inactive)	> 100 µM (inactive)	> 100 µM (inactive)	> 100 µM (inactive)	> 100 µM (inactive)	> 100 µM (inactive)	> 100 µM (inactive)	> 100 µM (inactive)	> 100 µM (inactive)	> 100 µM (inactive)	> 100 µM (inactive)	> 100 µM (inactive)	> 100 µM (inactive)
O=C1C2CC[C@@H]3C(=O)C(Cl)(Cl)[C@@H]3CCC2C1(Cl)Cl (stereo not given in full)	> 86.9 µM (inactive)	> 72.4 µM (inactive)	> 100 µM (inactive)	> 100 µM (inactive)	> 86.5 µM (inactive)	> 100 µM (inactive)	> 100 µM (inactive)	6.17 µM (inactive)	> 100 µM (inactive)	26.2 µM (inactive)	> 100 µM (inactive)	32.4 µM (inactive)	> 100 µM (inactive)	> 100 µM (inactive)	> 100 µM (inactive)	> 100 µM (inactive)	44 µM (inactive)	> 100 µM (inactive)	> 100 µM (inactive)	> 100 µM (inactive)
O=C(Nc1ccc(Cl)cc1)C(=O)C1=C(O)c2ccccc2OC1	> 100 µM (inactive)	> 100 µM (inactive)	> 100 µM (inactive)	> 100 µM (inactive)	> 100 µM (inactive)	> 100 µM (inactive)	> 100 µM (inactive)	> 100 µM (inactive)	> 100 µM (inactive)	> 100 µM (inactive)	> 100 µM (inactive)	> 100 µM (inactive)	> 100 µM (inactive)	> 100 µM (inactive)	> 100 µM (inactive)	33.1 µM (inactive)	> 100 µM (inactive)	80.5 µM (inactive)	> 100 µM (inactive)	> 100 µM (inactive)
O=C(c1ccccc1)N1CCN(C(=S)N(C(=O)c2ccccc2)c2ccccc2)C1=S	3.76 µM (inactive)	4.18 µM (inactive)	3.52 µM (inactive)	7.41 µM (inactive)	3.4 µM (inactive)	3.05 µM (inactive)	15.9 µM (inactive)	2.25 µM (inactive)	10.7 µM (inactive)	1.89 µM (inactive)	2.56 µM (inactive)	0.914 µM (active)	5.42 µM (inactive)	2.79 µM (inactive)	6.59 µM (inactive)	2.16 µM (inactive)	1.9 µM (inactive)	5.71 µM (inactive)	3.13 µM (inactive)	10.3 µM (inactive)
Nc1nn2c(C(Br)Br)cc(C(Br)Br)nc2c1[N+](=O)[O-]	1.81 µM (inactive)	1.34 µM (inactive)	1.21 µM (inactive)	1.89 µM (inactive)	0.634 µM (active)	1.98 µM (inactive)	1.72 µM (inactive)	0.178 µM (active)	2.21 µM (inactive)	0.303 µM (active)	1.25 µM (inactive)	0.239 µM (active)	0.766 µM (active)	0.861 µM (active)	1.36 µM (inactive)	1.08 µM (active)	0.269 µM (active)	1.32 µM (inactive)	0.962 µM (active)	1.6 µM (inactive)
